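GI50 marks 50% less growth. Definition used: TGI = concentration required for complete inhibition of growth.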
Columns and labels:
Test in all cases: NCI anticancer screen, dose series, 384-well format
MDA-MB-231 breast = tested on: MDA-MB-231 breast
ACHN renal = tested on: ACHN renal
DU-145 prostate = tested on: DU-145 prostate
HOP-92 NSCLC = tested on: HOP-92 NSCLC
SNB-19 CNS = tested on: SNB-19 CNS
HCT-116 colon = tested on: HCT-116 colon
NCI-H23 lung = tested on: NCI-H23 lung
HCC-2998 colon = tested on: HCC-2998 colon
MCF7 breast = tested on: MCF7 breast
EKVX NSCLC = tested on: EKVX NSCLC
UACC-257 melanoma = tested on: UACC-257 melanoma
HT29 colon = tested on: HT29 colon
NCI-H522 lung = tested on: NCI-H522 lung
OVCAR-3 ovarian = tested on: OVCAR-3 ovarian
MALME-3M melanoma = tested on: MALME-3M melanoma
TK-10 renal = tested on: TK-10 renal
A549 NSCLC = tested on: A549 NSCLC
SW-620 colon = tested on: SW-620 colon
RXF 393 renal = tested on: RXF 393 renal
SF-295 CNS = tested on: SF-295 CNS
SK-MEL-5 melanoma = tested on: SK-MEL-5 melanoma
SK-OV-3 ovarian = tested on: SK-OV-3 ovarian
NCI-H460 NSCLC = tested on: NCI-H460 NSCLC
SNB-75 CNS = tested on: SNB-75 CNS
MDA-MB-435 melanoma = tested on: MDA-MB-435 melanoma
SR leukemia = tested on: SR leukemia

## O=C(Nc1cn[nH]c1-c1nc2ccc(CN3CCOCC3)cc2[nH]1)NC1CC1
MDA-MB-231 breast
  GI50: 322 nM
  TGI: 2540 nM
ACHN renal
  GI50: 413 nM
  TGI: > 100000 nM
DU-145 prostate
  GI50: 651 nM
  TGI: 70400 nM
HOP-92 NSCLC
  GI50: 172 nM
  TGI: 10800 nM
SNB-19 CNS
  GI50: 256 nM
  TGI: 1730 nM
HCT-116 colon
  GI50: 71 nM
  TGI: > 100000 nM
NCI-H23 lung
  GI50: 88.2 nM
  TGI: 2030 nM
HCC-2998 colon
  GI50: 1360 nM
  TGI: 2810 nM
MCF7 breast
  GI50: 345 nM
  TGI: 7390 nM
EKVX NSCLC
  GI50: 196 nM
  TGI: 4490 nM
UACC-257 melanoma
  GI50: 2090 nM
  TGI: 4190 nM
HT29 colon
  GI50: 75.3 nM
  TGI: > 100000 nM
NCI-H522 lung
  GI50: 237 nM
  TGI: 835 nM
OVCAR-3 ovarian
  GI50: 156 nM
  TGI: 382 nM
MALME-3M melanoma
  GI50: 1420 nM
  TGI: 3080 nM
TK-10 renal
  GI50: 210 nM
  TGI: 706 nM
A549 NSCLC
  GI50: 800 nM
  TGI: > 100000 nM
SW-620 colon
  GI50: 36.3 nM
  TGI: > 100000 nM
RXF 393 renal
  GI50: 22.3 nM
  TGI: 61.2 nM
SF-295 CNS
  GI50: 187 nM
  TGI: 1210 nM
SK-MEL-5 melanoma
  GI50: 1260 nM
  TGI: 2670 nM
SK-OV-3 ovarian
  GI50: 259 nM
  TGI: 2280 nM
NCI-H460 NSCLC
  GI50: 48.7 nM
  TGI: 1590 nM
SNB-75 CNS
  GI50: 38.1 nM
  TGI: 113 nM
MDA-MB-435 melanoma
  GI50: 1470 nM
  TGI: 3370 nM
SR leukemia
  TGI: 18.7 nM

Reference: PubChem BioAssay (NCI)
